Measurements from patent US9889225B2 (KAOHSIUNG MEDICAL UNIVERSITY, priority 2010, dated 2018).

Assays:
[1] = system: rat femur bone defect; details: 6 weeks after implantation
Procedure: (§1) For anesthesia, an intraperitoneal injection with a mixture of ketamin hydrochloride (100 mg/ml per 80 mg/kg body weight) and xylazin 2% (12 mg/kg body weight) were used. The left thigh was shaved and a 3 cm lateral longitudinal skin incision was made. The lateral approach was performed posterior to vastus lateralis without damaging the muscle. A bone defect, 0.1 cm×0.4 cm in size, on left femur was created at middle portion of shaft by using a 0.5 mm cone-shape bur. After that, the implant was inserted into the cavity and covered with […] ™ (Johnson & Johnson Medical Limited, Neuchatel, Switzerland) to fix the implant in place. Radiographs were taken to verify the correct position of the bone defect using the great trochanter as control point. At the end of operation, skin wounds were sutured. Six weeks after operation, animals were sacrificed for biomechanical and histological analysis.
Femoral bone specimens were harvested for histological study 6 weeks after implantation. […] The 5-mm thick bone sections were removed and stained with hematoxylin and eosin (H&E; Santa Cruz, Santa Cruz, Calif., USA). A microscope with 10×, 100×, 400× magnification, equipped with a digital CCD camera (Eclipse 50i; Nikon Inc., Mich., USA), were used for images of the sections.

[2] = system: bone morphogenetic protein-2 (BMP-2); details: 6 weeks after implantation, versus PLGA group
Procedure: as §1
The 5 μm thick sections of femoral bone were incubated in 0.1% EDTA for 10 min at 100 degree for antigen retrieval. Immunohistochemistry (IHC) was performed using the Immuno Cruz Staining System (Santa Cruz). After incubating with 5% BSA/PBS (Sigma, Saint Louis, Mo., USA) blocking solution for 2 h at room temperature, sections were labeled with human-specific anti-BMP2 (dilution 1:50; Abcam) overnight at 4 degree in a humid chamber. […]

[3] = system: rat femur bone defect; assay: Rat femur bone defect model, 3-point bending test; details: post-surgery 6 weeks
Procedure: as §1
The present invention employed 3-point bending test to analyze the mechanical property at the end of experiment. Counterlateral femoral bone served as a non-defect femoral bone.
Mechanical property of bone: 3-point bending test: For testing the mechanical property of the repaired femoral defect, the Instron 4466 (model 4465; Instron, Canton, Mass.) was employed for mechanical tests. The rat femur was removed from body and all the connective tissues were stripped off. For 3-point bending, the femur bone was positioned onto two supports, and a single-pronged loading device was applied to the opposite surface at a point precisely in the middle between the two supports. The distance between two supports was 4 cm. Loading force was 1N with speed of 1 mm/min. The experimental procedure involved the measurement of the deflection of the bone at the point of load application and the concurrent measurement of the load, yielding a force-deflection graph. Parameters obtained from this graph include whole-bone stiffness (defined as the slope of the early, linear portion of the load-deflection curve), yield point, maximal load and fracture load. The Young's modulus of the material from the geometry of the loading device and the stiffness of the bone were measured. The data calculations were all based on beam theory and the Hooke's law.

[4] = system: rat femur bone defect; assay: Rat femur bone defect model, micro-CT trabecular bone volume; details: 6 weeks after surgery; for trabecular bone volume in the femoral defect site: normalized with total defect length
Procedure: For anesthesia, an intraperitoneal injection with a mixture of ketamin hydrochloride (100 mg/ml per 80 mg/kg body weight) and xylazin 2% (12 mg/kg body weight) were used. The left thigh was shaved and a 3 cm lateral longitudinal skin incision was made. The lateral approach was performed posterior to vastus lateralis without damaging the muscle. A bone defect, 0.1 cm×0.4 cm in size, on left femur was created at middle portion of shaft by using a 0.5 mm cone-shape bur. After that, the implant was inserted into the cavity and covered with […] ™ (Johnson & Johnson Medical Limited, Neuchatel, Switzerland) to fix the implant in place. Radiographs were taken to verify the correct position of the bone defect using the great trochanter as control point. At the end of operation, skin wounds were sutured.
Animals were anesthesia during micro-CT images scanning. Small animal micro-CT (Skyscan 1076, Bruker, Belgium) was employed for analyzing bone repair process in living animals and calculated by image software (CTAn) at the desired time point. The scan conditions were set at an aluminum filter of 0.5mm, 35 μm scanning resolution, x-ray voltage of 50 KV, x-ray current of 200 mA and an exposure time of 600 m-seconds. The area used for analysis began at the defect site close to femoral head and through all the defect area. Total volume indicated the inner area of cortical bone. Trabecular bone volume indicated the total trabecular bone within the total volume. Trabecular bone volume was normalized with total defect length in each rat.

**Q.** What does the source list for “poly(lactic-co-glycolic acid) cross-linked alendronate [PLGA-ALN]”?
**A.** cortical bone thickness and trabecular bone (H&E) versus PLGA group [1]: Thicker cortical bone and more trabecular bone; immunolocalized BMP-2 in the repaired cortical bone and trabecular bone [2]: predominant; Young's modulus ([3]; 5 mg implant): 0.43±0.03 GPa; maximal strength ([3]; 5 mg implant): 172.5±18.2 N; total energy absorption ([3]; 5 mg implant): 106.43±15.36 mm*N; Young's modulus ([3]; 10 mg implant): 0.51±0.03 GPa; maximal strength ([3]; 10 mg implant): 191.7±11.7 N; total energy absorption ([3]; 10 mg implant): 110.71±9.95 mm*N; trabecular bone volume relative to the control or PLGA group ([4]; 5 mg implant): 2 times; trabecular bone volume in the femoral defect site ([4]; 5 mg implant): 1.413±0.21; trabecular bone volume relative to the control or PLGA group ([4]; 10 mg implant): 2 times; trabecular bone volume in the femoral defect site ([4]; 10 mg implant): 1.45±0.35
